In publication PMC3639963, “A New Class of Small Molecule Inhibitor of BMP Signaling” (PLoS ONE, 2013):

What was measured:
Assay in all cases: Nanosyn kinase profiling
Assay type in all cases: biochemical
Conditions in all cases: read-out: Percentage inhibition; for inhibition at 0.1 µM: 0.1 µM inhibitor; for inhibition at 1 µM: 1 µM inhibitor
CHEK2 = target: T1, CHEK2 (Homo sapiens, UniProt O96017)
T1 construct: purchased Nanosyn (enzymatic panel); SGC in-house recombinant human kinases (DSF panel); Invitrogen (ALK1-6)
T1 sequence (O96017 whole entry): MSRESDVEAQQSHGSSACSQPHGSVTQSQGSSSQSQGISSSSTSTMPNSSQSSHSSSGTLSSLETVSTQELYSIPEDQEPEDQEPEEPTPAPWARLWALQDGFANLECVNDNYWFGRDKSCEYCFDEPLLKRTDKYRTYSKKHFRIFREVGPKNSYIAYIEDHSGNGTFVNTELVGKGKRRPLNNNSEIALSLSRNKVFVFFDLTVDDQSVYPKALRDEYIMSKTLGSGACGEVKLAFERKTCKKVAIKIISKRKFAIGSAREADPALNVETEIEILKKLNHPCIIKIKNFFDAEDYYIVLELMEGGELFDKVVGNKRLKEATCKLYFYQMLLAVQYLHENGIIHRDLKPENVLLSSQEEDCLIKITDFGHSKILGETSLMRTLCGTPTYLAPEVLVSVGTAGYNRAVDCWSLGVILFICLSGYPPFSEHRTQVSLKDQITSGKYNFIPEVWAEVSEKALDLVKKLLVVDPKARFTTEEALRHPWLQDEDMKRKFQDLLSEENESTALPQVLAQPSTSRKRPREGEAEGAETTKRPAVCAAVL
Summary of the method: (§1)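 Percent inhibition of each kinase was measured with the inhibitor at 0.1 µM and at 1 µM, as part of a 200-kinase human selectivity panel.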

GSK3β = target: T2, GSK3β (Homo sapiens, UniProt P49841)
T2 construct: purchased Nanosyn (enzymatic panel); SGC in-house recombinant human kinases (DSF panel); Invitrogen (ALK1-6)
T2 sequence (P49841 whole entry): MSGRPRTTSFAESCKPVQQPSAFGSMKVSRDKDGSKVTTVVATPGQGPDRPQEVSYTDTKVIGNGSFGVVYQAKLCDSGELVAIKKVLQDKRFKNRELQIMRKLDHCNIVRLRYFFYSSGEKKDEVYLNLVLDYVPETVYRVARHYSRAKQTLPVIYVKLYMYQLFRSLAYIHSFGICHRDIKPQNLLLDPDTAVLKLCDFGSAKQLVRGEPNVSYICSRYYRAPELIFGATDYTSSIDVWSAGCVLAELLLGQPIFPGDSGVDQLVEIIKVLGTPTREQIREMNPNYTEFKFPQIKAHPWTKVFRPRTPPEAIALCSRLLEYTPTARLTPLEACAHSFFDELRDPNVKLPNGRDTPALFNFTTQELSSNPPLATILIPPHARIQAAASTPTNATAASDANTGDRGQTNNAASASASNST
Summary of the method: as §1

IRR = target: T3, IRR (Homo sapiens, UniProt P14616)
T3 construct: purchased Nanosyn (enzymatic panel); SGC in-house recombinant human kinases (DSF panel); Invitrogen (ALK1-6)
T3 sequence (P14616 27-1297): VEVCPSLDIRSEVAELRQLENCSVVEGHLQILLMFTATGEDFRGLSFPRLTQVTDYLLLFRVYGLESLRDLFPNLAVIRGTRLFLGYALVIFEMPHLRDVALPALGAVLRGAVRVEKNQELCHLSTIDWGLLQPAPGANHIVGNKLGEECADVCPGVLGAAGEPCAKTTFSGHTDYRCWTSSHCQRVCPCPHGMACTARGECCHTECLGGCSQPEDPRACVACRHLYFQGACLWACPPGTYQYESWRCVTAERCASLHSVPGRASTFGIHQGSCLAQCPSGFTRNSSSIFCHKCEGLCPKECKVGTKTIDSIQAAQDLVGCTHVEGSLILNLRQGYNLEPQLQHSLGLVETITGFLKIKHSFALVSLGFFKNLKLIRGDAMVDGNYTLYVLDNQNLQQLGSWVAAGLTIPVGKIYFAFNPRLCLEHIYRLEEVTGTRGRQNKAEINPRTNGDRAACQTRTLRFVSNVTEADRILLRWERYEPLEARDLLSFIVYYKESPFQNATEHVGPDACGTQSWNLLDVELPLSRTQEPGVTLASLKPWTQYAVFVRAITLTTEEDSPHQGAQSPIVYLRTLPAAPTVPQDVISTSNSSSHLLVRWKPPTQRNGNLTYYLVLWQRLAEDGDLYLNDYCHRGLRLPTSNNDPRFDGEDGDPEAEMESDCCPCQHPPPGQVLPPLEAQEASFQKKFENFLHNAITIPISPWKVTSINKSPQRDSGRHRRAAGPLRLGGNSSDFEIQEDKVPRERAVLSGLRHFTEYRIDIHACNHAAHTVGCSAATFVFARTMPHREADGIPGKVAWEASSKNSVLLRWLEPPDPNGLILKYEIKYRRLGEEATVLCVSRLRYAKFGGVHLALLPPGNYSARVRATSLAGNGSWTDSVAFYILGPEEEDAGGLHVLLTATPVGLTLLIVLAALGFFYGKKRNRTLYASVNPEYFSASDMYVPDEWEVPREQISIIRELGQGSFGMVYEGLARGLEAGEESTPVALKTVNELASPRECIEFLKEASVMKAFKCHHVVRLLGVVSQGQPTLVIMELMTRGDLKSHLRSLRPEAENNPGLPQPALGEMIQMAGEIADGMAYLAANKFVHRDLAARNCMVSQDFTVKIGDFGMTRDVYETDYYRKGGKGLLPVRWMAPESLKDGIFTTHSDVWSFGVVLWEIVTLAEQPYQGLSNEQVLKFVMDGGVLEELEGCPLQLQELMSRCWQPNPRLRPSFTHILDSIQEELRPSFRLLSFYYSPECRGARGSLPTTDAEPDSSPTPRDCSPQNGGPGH
Summary of the method: as §1

MUSK = target: T4, MUSK (Homo sapiens, UniProt O15146)
T4 construct: purchased Nanosyn (enzymatic panel); SGC in-house recombinant human kinases (DSF panel); Invitrogen (ALK1-6)
T4 sequence (O15146 24-869): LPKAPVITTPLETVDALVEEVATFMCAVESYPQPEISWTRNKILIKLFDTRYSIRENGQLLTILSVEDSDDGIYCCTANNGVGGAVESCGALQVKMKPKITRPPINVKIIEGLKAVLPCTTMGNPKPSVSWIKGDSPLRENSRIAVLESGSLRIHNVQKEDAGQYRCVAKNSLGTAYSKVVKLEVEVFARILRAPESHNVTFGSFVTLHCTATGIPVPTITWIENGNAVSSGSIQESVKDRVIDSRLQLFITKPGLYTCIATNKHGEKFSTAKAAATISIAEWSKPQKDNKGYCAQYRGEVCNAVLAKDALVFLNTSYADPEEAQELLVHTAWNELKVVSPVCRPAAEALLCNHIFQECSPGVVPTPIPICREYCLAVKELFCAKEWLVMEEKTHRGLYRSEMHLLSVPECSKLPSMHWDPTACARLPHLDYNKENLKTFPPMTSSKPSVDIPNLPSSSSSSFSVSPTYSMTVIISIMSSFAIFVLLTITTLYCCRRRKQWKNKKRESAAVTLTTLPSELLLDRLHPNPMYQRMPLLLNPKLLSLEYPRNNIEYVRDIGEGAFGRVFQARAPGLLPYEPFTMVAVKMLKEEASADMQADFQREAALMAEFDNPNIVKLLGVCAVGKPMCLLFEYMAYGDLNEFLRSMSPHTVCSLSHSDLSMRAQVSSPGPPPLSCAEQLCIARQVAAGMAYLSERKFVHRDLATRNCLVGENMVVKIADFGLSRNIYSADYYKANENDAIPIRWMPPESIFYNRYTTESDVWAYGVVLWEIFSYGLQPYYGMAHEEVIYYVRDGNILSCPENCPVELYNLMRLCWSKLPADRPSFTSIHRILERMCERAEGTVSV
Summary of the method: as §1

PDGFRα = target: T5, PDGFRα (Homo sapiens, UniProt P16234)
T5 construct: purchased Nanosyn (enzymatic panel); SGC in-house recombinant human kinases (DSF panel); Invitrogen (ALK1-6)
T5 sequence (P16234 24-1089): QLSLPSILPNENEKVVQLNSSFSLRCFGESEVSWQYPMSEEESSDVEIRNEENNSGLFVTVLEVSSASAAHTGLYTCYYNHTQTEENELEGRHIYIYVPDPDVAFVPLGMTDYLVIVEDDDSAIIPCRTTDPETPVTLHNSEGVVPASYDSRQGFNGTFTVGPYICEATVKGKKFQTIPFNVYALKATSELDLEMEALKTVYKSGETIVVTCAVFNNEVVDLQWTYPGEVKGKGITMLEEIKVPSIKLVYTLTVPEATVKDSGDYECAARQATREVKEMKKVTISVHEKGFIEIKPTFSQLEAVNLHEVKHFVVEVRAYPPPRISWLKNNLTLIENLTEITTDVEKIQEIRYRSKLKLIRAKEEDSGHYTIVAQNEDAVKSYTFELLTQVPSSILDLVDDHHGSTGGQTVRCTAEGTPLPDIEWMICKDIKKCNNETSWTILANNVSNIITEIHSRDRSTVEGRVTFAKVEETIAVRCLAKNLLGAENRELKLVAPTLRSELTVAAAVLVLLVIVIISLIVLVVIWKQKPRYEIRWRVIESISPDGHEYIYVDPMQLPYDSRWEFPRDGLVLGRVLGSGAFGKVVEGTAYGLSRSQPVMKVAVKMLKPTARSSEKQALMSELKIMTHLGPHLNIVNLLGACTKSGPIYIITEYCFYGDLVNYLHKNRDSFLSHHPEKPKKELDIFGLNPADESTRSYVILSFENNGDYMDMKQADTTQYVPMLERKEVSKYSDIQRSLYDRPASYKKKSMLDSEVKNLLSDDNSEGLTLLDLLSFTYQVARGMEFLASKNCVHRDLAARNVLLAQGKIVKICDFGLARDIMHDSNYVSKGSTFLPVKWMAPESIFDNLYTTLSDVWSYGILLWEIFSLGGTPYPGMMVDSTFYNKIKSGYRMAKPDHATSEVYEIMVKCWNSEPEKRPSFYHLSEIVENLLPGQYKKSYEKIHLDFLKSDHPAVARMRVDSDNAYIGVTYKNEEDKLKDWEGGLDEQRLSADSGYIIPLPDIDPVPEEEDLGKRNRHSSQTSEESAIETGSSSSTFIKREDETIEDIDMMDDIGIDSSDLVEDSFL
Summary of the method: as §1

PRKG2 = target: T6, PRKG2 (Homo sapiens, UniProt Q13237)
T6 construct: purchased Nanosyn (enzymatic panel); SGC in-house recombinant human kinases (DSF panel); Invitrogen (ALK1-6)
T6 sequence (Q13237 1-762): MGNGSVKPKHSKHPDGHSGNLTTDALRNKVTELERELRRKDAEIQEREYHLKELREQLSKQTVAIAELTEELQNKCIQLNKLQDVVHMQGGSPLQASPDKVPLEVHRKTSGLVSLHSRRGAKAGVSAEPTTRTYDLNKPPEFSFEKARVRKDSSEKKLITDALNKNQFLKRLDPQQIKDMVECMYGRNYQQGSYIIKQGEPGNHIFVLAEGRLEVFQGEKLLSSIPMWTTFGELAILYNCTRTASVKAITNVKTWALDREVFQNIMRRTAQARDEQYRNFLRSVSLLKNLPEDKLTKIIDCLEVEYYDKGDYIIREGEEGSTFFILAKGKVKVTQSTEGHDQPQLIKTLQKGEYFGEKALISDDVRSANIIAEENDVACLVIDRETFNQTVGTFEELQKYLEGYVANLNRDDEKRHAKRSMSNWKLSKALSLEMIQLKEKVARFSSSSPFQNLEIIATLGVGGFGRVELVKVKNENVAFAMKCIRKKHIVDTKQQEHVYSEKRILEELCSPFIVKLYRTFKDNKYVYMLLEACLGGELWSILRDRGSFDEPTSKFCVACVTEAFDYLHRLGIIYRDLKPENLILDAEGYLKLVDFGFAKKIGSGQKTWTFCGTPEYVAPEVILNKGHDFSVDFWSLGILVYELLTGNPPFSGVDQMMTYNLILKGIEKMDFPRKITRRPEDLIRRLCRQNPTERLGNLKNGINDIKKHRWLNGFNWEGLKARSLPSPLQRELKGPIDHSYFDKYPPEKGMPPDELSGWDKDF
Summary of the method: as §1

TRKA = target: T7, TRKA (Homo sapiens, UniProt P04629)
T7 construct: purchased Nanosyn (enzymatic panel); SGC in-house recombinant human kinases (DSF panel); Invitrogen (ALK1-6)
T7 sequence (P04629 33-796): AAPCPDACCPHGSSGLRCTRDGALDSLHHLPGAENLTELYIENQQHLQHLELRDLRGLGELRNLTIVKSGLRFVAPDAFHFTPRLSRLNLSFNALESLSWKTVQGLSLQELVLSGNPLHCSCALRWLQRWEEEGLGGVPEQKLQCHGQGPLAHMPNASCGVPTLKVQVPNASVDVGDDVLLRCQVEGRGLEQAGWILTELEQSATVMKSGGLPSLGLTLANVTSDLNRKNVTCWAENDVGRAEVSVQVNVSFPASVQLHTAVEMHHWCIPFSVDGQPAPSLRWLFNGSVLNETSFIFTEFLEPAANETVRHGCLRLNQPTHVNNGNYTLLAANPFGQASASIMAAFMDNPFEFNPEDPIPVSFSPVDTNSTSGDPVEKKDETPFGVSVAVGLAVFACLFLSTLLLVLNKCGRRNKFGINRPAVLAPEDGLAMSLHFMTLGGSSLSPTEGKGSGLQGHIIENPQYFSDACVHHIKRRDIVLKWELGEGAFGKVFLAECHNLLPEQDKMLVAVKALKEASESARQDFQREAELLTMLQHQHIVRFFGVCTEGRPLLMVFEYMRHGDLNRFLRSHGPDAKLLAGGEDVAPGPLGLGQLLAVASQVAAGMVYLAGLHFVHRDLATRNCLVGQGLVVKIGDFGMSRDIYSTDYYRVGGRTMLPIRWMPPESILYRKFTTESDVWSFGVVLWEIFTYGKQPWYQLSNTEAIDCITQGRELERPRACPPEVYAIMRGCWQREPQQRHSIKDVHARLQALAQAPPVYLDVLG
Summary of the method: as §1

Row | Compound | inhibition at 0.1 µM (CHEK2) [%] | inhibition at 1 µM (CHEK2) [%] | inhibition at 0.1 µM (GSK3β) [%] | inhibition at 1 µM (GSK3β) [%] | inhibition at 0.1 µM (IRR) [%] | inhibition at 1 µM (IRR) [%] | inhibition at 0.1 µM (MUSK) [%] | inhibition at 1 µM (MUSK) [%] | inhibition at 0.1 µM (PDGFRα) [%] | inhibition at 1 µM (PDGFRα) [%] | inhibition at 0.1 µM (PRKG2) [%] | inhibition at 1 µM (PRKG2) [%] | inhibition at 0.1 µM (TRKA) [%] | inhibition at 1 µM (TRKA) [%]
1 | COc1cc(-c2cc(-c3cccc(O)c3)cnc2N)cc(OC)c1OC [K02288, 3-[6-amino-5-(3,4,5-trimethoxy-phenyl)-pyridin-3-yl]-phenol] | -1 | 2.5 | 0.5 | 1.6 | -1 | -1 | 1.2 | -1 | 5.3 | 37 | 1 | 5 | 1.5 | 2.8
2 | c1ccc2c(-c3cnn4cc(-c5ccc(N6CCNCC6)cc5)cnc34)ccnc2c1 [LDN-193189] | 1.5 | 2 | 2.7 | 2.1 | 1.9 | 2.2 | 5.8 | 26 | 18 | 56 | 1.7 | 9.3 | 1.9 | 7.2
